Data from ChEMBL document CHEMBL1148588, “Anthrax lethal factor protease inhibitors: synthesis, SAR, and structure-based 3D QSAR studies” (J Med Chem, 2006).

Molecular target: T1, Lethal factor (Bacillus anthracis, UniProt P15917)
T1 sequence (P15917 whole entry): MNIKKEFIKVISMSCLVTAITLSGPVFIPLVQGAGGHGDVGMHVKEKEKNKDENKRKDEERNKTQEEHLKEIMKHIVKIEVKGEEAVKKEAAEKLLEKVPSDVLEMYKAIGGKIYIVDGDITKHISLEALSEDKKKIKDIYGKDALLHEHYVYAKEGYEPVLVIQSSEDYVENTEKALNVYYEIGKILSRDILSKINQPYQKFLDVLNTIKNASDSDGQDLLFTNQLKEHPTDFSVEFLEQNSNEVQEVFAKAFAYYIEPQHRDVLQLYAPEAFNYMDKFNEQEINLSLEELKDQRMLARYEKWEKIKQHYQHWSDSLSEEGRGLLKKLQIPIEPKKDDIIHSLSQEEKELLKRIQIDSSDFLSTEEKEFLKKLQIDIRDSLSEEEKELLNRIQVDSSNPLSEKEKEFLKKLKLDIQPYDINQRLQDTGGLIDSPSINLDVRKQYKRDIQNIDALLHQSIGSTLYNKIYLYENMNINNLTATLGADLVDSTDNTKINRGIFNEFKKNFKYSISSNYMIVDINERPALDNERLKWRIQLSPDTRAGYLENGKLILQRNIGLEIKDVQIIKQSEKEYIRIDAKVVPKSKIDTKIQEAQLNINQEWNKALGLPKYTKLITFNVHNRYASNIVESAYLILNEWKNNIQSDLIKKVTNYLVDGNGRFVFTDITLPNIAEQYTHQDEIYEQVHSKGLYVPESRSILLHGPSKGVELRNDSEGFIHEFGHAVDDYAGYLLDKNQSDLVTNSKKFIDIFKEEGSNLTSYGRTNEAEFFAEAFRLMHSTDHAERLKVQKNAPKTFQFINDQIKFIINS
Test: Inhibitory activity against anthrax lethal factor metalloprotease

CN1/C(=C/c2ccc(-c3ccc(Cl)cc3)o2)C(=O)NC1NC(=O)O (stereo not given)
IC50: > 100 µM | Log IC50: > -4

O=C(O)CN1C(=O)S/C(=C\c2ccc(-c3cc(C(F)(F)F)ccc3Cl)o2)C1=O
IC50: 5.9 µM

O=C(O)CN1C(=O)S/C(=C\c2ccc(-c3ccc(Cl)cc3[N+](=O)[O-])o2)C1=O
IC50: 0.5 µM

O=C(O)CN1C(=O)/C(=C/c2ccc(-c3ccc(I)cc3)o2)SC1=S
IC50: 5.6 µM
